These results are taken from patent publication US8829185B2 (Bayer HealthCare LLC, priority 2005, dated 2014).

Each structure is given as a SMILES string.

One assay deals with HCT116 cells. In words: Tumor cell proliferation (Alamar Blue), HCT116. The class given is cell-based. The note with it: Homo sapiens, HCT-116, 72 h, HCT116, 72 h. On the procedure:
(§1) Human tumor cells (e.g., HCT116 or MDA-MB-231 cells), were seeded in a Costar 96-well plate at 3.0×10^3 cells/well and grown in 150 μl of RPMI complete media (Invitrogen Corporation, Grand Island, N.Y.) containing 10% fetal bovine serum (Hyclone, Logan, Utah) at 37° C. for 16 h in an incubator with 5% CO2. To each well, 50 μl of additional growth media containing 40 μM to 18 nM concentrations of compound with 0.4% DMSO was added. Cells were grown for another 72 h at 37° C. with 5% CO2. 20 μl of Alamar Blue (Trek Diagnostic Systems, Inc., Cleveland, Ohio) reagent was added to each well and incubated for 3 h at 37° C. Plates were read in a SpectraMax Gemini (Molecular Devices, CA) with 544 nm excitation and 590 nm emission wavelength. IC50 values were determined by linear regression analysis of log drug concentration versus percent inhibition.
A general note: Resazurin is reduced to fluorescent resorufin, in cell work by metabolically active cells.

Another assay deals with MDA-MB-231 cells. In words: Tumor cell proliferation (Alamar Blue), MDA-MB-231. The class given is cell-based. The settings on record: Homo sapiens, MDA-MB-231, 72 h. On the procedure:
as §1

The target of another assay is T1, FGFR1-GST (Homo sapiens, UniProt P11362).
T1 construct: GST; made in house
In words: FGFR-1 TR-FRET biochemical assay. The note with it: bounds given in nM. Put shortly:
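LANCE TR-FRET with 5 nM FGFR1-GST, 0.6 uM ATP, 25 nM biotin-poly GT in HEPES pH 7.5/MgCl2, 1% DMSO; compound added before enzyme, 1 h at room temperature. 665/615 nm ratio, background without ATP; % inhibition over 10 μM–0.128 nM final for IC50.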
Background: TR-FRET usually uses a lanthanide donor and a delayed reading to cut background.

The subject of assay [1] is histone 3 phosphorylation in colon carcinoma (HCT116). Kind of assay: p-Histone3 assay. Format: cell-based. The note with it: Homo sapiens, HCT-116, 24 h, HCT116, 24 hours treatment. The method, then: Compounds were assayed for the inhibition of histone 3 phosphorylation in colon carcinoma (HCT116). Briefly, 20,000 cells/well were seeded in a 96-well black-walled, poly-d-lysine plates in RPMI+10% FBS and incubated at 37° C. in 5% CO2 overnight. The following day, the cells were treated with compounds for 24 hours at 37° C. Following compound treatment; plates were centrifuged at 1000 rpm for 2 minutes and washed twice with 100 μl of cold sterile TBS. Cells were then fixed with cold 3.7% formaldehyde in TBS (4° C. for 1 hour) and then permeabalized with 0.1% Triton-X-100 in TBS (room temperature for 30 minutes). Plates were then washed with of 0.25% BSA-TBS and blocked with BSA solution for 1 hour at room temperature while shaking. The supernatant was removed and replaced with diluted primary antibody (anti-phospho-histone 3, serine 10, Cell Signaling) at 1:250 in 0.25% BSA-TBS and incubated overnight at 4° C. The plates were washed and treated with diluted secondary antibody (anti-rabbit Eu-labeled) at 1:10000 in 0.25% BSA-TBS (room temperature for 1 hour). The antibody solution was removed from each well and washed eight times. The wash buffer was replaced with 50 μl pre-warmed enhancement solution and mixed on the orbital shaker for 10 minutes. Fluorescence was detected with a Victor V Fluorescence Detector. The data are expressed as percent inhibition: % inhibition=100−((Signal with inhibitor-background)/(Signal without inhibitor-background))×100.

T1 sequence (P11362 22-822): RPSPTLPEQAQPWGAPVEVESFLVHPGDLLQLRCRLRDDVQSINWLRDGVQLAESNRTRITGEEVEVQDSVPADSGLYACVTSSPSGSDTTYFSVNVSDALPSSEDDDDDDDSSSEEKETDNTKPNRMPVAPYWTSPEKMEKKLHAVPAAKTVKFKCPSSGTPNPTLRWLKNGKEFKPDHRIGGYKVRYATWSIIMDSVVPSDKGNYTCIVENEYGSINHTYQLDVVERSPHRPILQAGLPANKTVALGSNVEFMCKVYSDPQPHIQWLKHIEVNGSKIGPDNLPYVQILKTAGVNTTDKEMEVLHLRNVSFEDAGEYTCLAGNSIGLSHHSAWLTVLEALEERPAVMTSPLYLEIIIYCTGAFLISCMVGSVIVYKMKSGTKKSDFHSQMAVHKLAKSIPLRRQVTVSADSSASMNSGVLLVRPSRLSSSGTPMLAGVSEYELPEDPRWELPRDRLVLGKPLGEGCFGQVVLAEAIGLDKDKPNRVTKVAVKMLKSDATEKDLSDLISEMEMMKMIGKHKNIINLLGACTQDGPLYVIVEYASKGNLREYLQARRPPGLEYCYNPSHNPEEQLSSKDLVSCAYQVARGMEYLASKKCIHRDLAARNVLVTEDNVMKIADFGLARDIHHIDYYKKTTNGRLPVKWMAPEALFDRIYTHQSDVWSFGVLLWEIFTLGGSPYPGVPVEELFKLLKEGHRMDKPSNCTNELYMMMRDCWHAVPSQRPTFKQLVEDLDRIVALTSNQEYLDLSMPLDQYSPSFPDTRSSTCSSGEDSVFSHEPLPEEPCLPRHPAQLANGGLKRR

In the case of `COCc1c(-c2ccc(NC(=O)Nc3cc(C(F)(F)F)ccc3F)cc2)c2c(N)ncnn2c1C(C)O` (centres unmarked) [Example 25, N-{4-[4-amino-7-(1-hydroxyethyl)-6-(methoxymethyl)pyrrolo[2,1-f][1,2,4]triazin-5-yl]phenyl}-N′-[2-fluoro-5-(trifluoromethyl)phenyl]urea], the results for the IC50 in the assay on HCT116 cells (lower bound in nM) and in the assay on HCT116 cells (upper bound given in μM) were > 500 nM and < 4000 nM, respectively.

Turning to `COCc1c(-c2ccc(NC(=O)Nc3cc(C(F)(F)F)ccc3F)cc2)c2c(N)ncnn2c1CN1CCN(C)CC1` [Example 13, N-(4-{4-amino-6-(methoxymethyl)-7-[(4-methylpiperazin-1-yl)methyl]pyrrolo[2,1-f][1,2,4]triazin-5-yl}phenyl)-N′-[2-fluoro-5-(trifluoro-methyl)phenyl]urea], the IC50 was > 500 nM in the assay on HCT116 cells (lower bound in nM); < 4000 nM with HCT116 cells (upper bound given in μM); > 500 nM in the assay with MDA-MB-231 cells (lower bound in nM); < 5000 nM in the assay with MDA-MB-231 cells (upper bound given in μM); 10 to 100 nM on FGFR1-GST; < 5 µM in assay [1] (bounds given in μM). Also, the IC50 in assay [1] (lower bound in nM) is > 0.5 µM.

Consider `Nc1ncnn2c(CN3CCOCC3)c(C(=O)NCC(F)(F)F)c(-c3ccc(NC(=O)Nc4cc(C(F)(F)F)ccc4F)cc3)c12` [Example 9, 4-amino-5-{4-[({[2-fluoro-5-(trifluoromethyl)-phenyl]amino}carbonyl)amino]phenyl}-7-(morpholin-4-ylmethyl)-N-(2,2,2-trifluoroethyl)pyrrolo[2,1-f][1,2,4]triazine-6-carboxamide], for which the results for the concentration for half-maximal inhibition (IC50) (on FGFR1-GST; in assay [1] (bounds given in μM); in assay [1] (lower bound in nM)) were < 10 nM, < 5 µM and > 0.5 µM, respectively.

As for `COCc1c(-c2ccc(NC(=O)Nc3cc(C(F)(F)F)ccc3F)cc2)c2c(N)ncnn2c1CN1CCN(S(C)(=O)=O)CC1` [Example 20, N-[4-(4-amino-6-(methoxymethyl)-7-{[4-(methylsulfonyl)piperazin-1-yl]methyl}pyrrolo[2,1-f][1,2,4]triazin-5-yl)phenyl]-N′-[2-fluoro-5-(trifluoromethyl)phenyl]urea], the concentration for half-maximal inhibition (IC50) at FGFR1-GST was 10 to 100 nM; in assay [1] (bounds given in μM), 5 to 10 µM.

Turning to `N#Cc1c(-c2ccc(NC(=O)Nc3cc(C(F)(F)F)ccc3F)cc2)c2c(N)ncnn2c1CN1CCOCC1` [Example 54, N-4-[4-amino-6-cyano-7-(morpholin-4-ylmethyl)pyrrolo[2,1-f][1,2,4]triazin-5-yl]phenyl-N′-[2-fluoro-5-(trifluoromethyl)phenyl]urea], the values for the half-inhibitory concentration (IC50) (at FGFR1-GST; in assay [1] (bounds given in μM); in assay [1] (lower bound in nM)) were < 10 nM, < 5 µM and > 0.5 µM, respectively.

With `CN1CCN(Cc2c(C(=O)NCC(F)(F)F)c(-c3ccc(NC(=O)Nc4cc(C(F)(F)F)ccc4F)cc3)c3c(N)ncnn23)CC1` [Example 10, 4-amino-5-{4-[({[2-fluoro-5-(trifluoromethyl)-phenyl]amino}carbonyl)amino]phenyl}-7-[(4-methylpiperazin-1-yl)methyl]-N-(2,2,2-trifluoroethyl)pyrrolo[2,1-f][1,2,4]triazine-6-carboxamide], the half-inhibitory concentration (IC50) was < 10 nM against FGFR1-GST, < 5 µM in assay [1] (bounds given in μM) and > 0.5 µM in assay [1] (lower bound in nM).

With `COCc1c(-c2ccc(NC(=O)Nc3cc(C(F)(F)F)ccc3F)cc2)c2c(N)ncnn2c1CN1CCOCC1` [Example 12, N-{4-[4-amino-6-(methoxymethyl)-7-(morpholin-4-ylmethyl)pyrrolo[2,1-f][1,2,4]triazin-5-yl]phenyl}-N′-[2-fluoro-5-(trifluoromethyl)phenyl]urea], the IC50 was > 500 nM with HCT116 cells (lower bound in nM); < 4000 nM in the assay on HCT116 cells (upper bound given in μM); > 500 nM in the assay on MDA-MB-231 cells (lower bound in nM); < 5000 nM in the assay with MDA-MB-231 cells (upper bound given in μM); < 10 nM against FGFR1-GST; 5 to 10 µM in assay [1] (bounds given in μM).

On to `Nc1ncnn2c(CN3CCOCC3)c(-c3cnco3)c(-c3ccc(NC(=O)Nc4cc(C(F)(F)F)ccn4)c(F)c3)c12` [Example 33, N-4-[4-amino-7-(morpholin-4-ylmethyl)-6-(1,3-oxazol-5-yl)pyrrolo[2,1-f][1,2,4]triazin-5-yl]-2-fluorophenyl-N′-[4-(trifluoromethyl)pyridin-2-yl]urea], for which the IC50 is < 10 nM against FGFR1-GST and 5 to 10 µM in assay [1] (bounds given in μM).

`Nc1ncnn2c(CN3CCOCC3)c(CO)c(-c3ccc(NC(=O)Nc4cc(C(F)(F)F)ccc4F)cc3)c12` [Example 34, N-4-[4-amino-6-(hydroxymethyl)-7-(morpholin-4-ylmethyl)-pyrrolo[2,1-f][1,2,4]triazin-5-yl]phenyl-N′-[2-fluoro-5-(trifluoromethyl)-phenyl]urea]: the IC50 is 10 to 100 nM against FGFR1-GST, < 5 µM in assay [1] (bounds given in μM) and > 0.5 µM in assay [1] (lower bound in nM).

On to `COCc1c(-c2ccc(NC(=O)Nc3cc(C(F)(F)F)ccc3F)cc2)c2c(N)ncnn2c1CO` [Example 23, N-{4-[4-amino-7-(hydroxymethyl)-6-(methoxymethyl)-pyrrolo[2,1-f][1,2,4]triazin-5-yl]phenyl}-N′-[2-fluoro-5-(trifluoromethyl)-phenyl]urea], for which the half-maximal inhibitory concentration (IC50) with HCT116 cells (lower bound in nM) was > 500 nM; with HCT116 cells (upper bound given in μM) it was < 4000 nM; in the assay on MDA-MB-231 cells (lower bound in nM), > 500 nM; in the assay on MDA-MB-231 cells (upper bound given in μM), < 5000 nM; against FGFR1-GST it was 10 to 100 nM.

As to `CN(C)Cc1c(C(=O)NCC(F)(F)F)c(-c2ccc(NC(=O)Nc3cccc(C(F)(F)F)n3)cc2)c2c(N)ncnn12` [Example 53, 4-amino-7-[(dimethylamino)methyl]-N-(2,2,2-trifluoroethyl)-5-{-4-[({[6-(trifluoromethyl)-pyridin-2-yl]amino}carbonyl)-amino]phenyl}pyrrolo[2,1-f][1,2,4]triazine-6-carboxamide], the values for the IC50 in assay [1] (bounds given in μM) and in assay [1] (lower bound in nM) were < 5 µM and > 0.5 µM, respectively.

In the case of `Cc1c(-c2ccc(NC(=O)Nc3cc(C(F)(F)F)ccc3F)cc2)c2c(N)ncnn2c1CN1CCOCC1` [Example 111, N-{4-[4-amino-6-methyl-7-(morpholin-4-ylmethyl)pyrrolo[2,1-f][1,2,4]triazin-5-yl]phenyl}-N′-[2-fluoro-5-(trifluoromethyl)phenyl]urea], the IC50 was < 10 nM on FGFR1-GST, < 5 µM in assay [1] (bounds given in μM) and > 0.5 µM in assay [1] (lower bound in nM).

In the case of `N#CCc1c(-c2ccc(NC(=O)Nc3cc(C(F)(F)F)ccc3F)c(F)c2)c2c(N)ncnn2c1CN1CCOCC1` [Example 69, N-{4-[4-amino-6-(cyanomethyl)-7-(morpholin-4-ylmethyl)-pyrrolo[2,1-f][1,2,4]triazin-5-yl]-2-fluorophenyl}-N′-[2-fluoro-5-(trifluoromethyl)phenyl]urea], the IC50 against FGFR1-GST is < 10 nM; in assay [1] (bounds given in μM), < 5 µM; in assay [1] (lower bound in nM), > 0.5 µM.

Turning to `Nc1ncnn2c(CN3CCOCC3)c(CO)c(-c3ccc(NC(=O)Nc4cc(C(F)(F)F)ccn4)cc3)c12` [Example 62, N-{4-[4-amino-6-(hydroxymethyl)-7-(morpholin-4-ylmethyl)pyrrolo[2,1-f][1,2,4]triazin-5-yl]phenyl}-N′-[4-(trifluoromethyl)-pyridin-2-yl]urea], the IC50 at FGFR1-GST lay within 10 to 100 nM; in assay [1] (bounds given in μM), 5 to 10 µM.

In the case of `N#Cc1c(C(=O)NCC(F)(F)F)c(-c2ccc(NC(=O)Nc3cc(C(F)(F)F)ccn3)cc2)c2c(N)ncnn12` [Example 7, 4-amino-7-cyano-N-(2,2,2-trifluoroethyl)-5-{4-[({[4-(trifluoromethyl)pyridin-2-yl]amino}carbonyl)-amino]phenyl}pyrrolo[2,1-f][1,2,4]triazine-6-carboxamide], the IC50 in the assay with HCT116 cells (lower bound in nM) was > 500 nM; in the assay on HCT116 cells (upper bound given in μM), < 4000 nM; in the assay with MDA-MB-231 cells (lower bound in nM), > 500 nM; in the assay with MDA-MB-231 cells (upper bound given in μM), < 5000 nM; against FGFR1-GST, 10 to 100 nM; in assay [1] (bounds given in μM), < 5 µM. Moreover, the half-inhibitory concentration (IC50) in assay [1] (lower bound in nM) was > 0.5 µM.

What is called IC50 is the point on the concentration scale where inhibition reaches its midpoint. Low values mean greater potency, high ones weaker potency.
